Measured values: publication PMC7856883 (Advanced Science, 2020)
“And” between values parts separate entries of the source, which are not always exact repeats. Identical values can stand only once.

Test system: A/California/09
Parameters: species or system BALB/c mice
Conditions: mouse, in vivo

CCOC(=O)C1=C[C@@H](OC(CC)CC)[C@H](NC(C)=O)[C@@H](N)C1 [oseltamivir]
survival: 10/10 and 0 out of 10 and no survival
